From patent US20240408167A1, “COMPOSITION FOR TREATING OCULAR DISEASES CONTAINING PEPTIDE” (Encuragen Inc., priority 2023, published 2024)
Counter-ions that a name gives are not always drawn. Like-named read-outs stand apart in the source and are kept apart here.

System: BALB/3T3 clone A31 cells
Experiment: cells
Format: cell-based
Conditions: for IC50: Mus musculus, light or radiation study, BALB/3T3 clone A31 cells, neutral red
Procedure: To evaluate the phototoxicity of (PEG)-BHD1028, the potential phototoxicity of (PEG)-BHD1028 was measured in the BALB/3T3 clone A31 cells after UV exposure. The test substance and the positive control group (chlorpromazine hydrochloride; CPZ) were dissolved in a Hank's Balanced Salt Solution (HBSS) and then diluted with a Hank's Balanced Salt Solution (HBSS). The cells were trypsinized and counted. Thereafter, 1×10^4 cells per well were seeded in a 96-well plate and cultured for approximately 24 hours before treating the test samples. One hour after the sample treatment, the plate was irradiated with a UV irradiation system (UVA, 365 nm). After UV irradiation, the plate was incubated for 24 hours. The cell viability of the cultured cells was confirmed by measuring the absorbance at 540 nm using the neutral red staining method.

MPE (mean photo effect) (mouse, 24 h): 0.489 | PIF (photo irradiation factor) (mouse, 24 h): 29.668
SMILES: CN(C)CCCN1c2ccccc2Sc2ccc(Cl)cc21 [CPZ, chlorpromazine hydrochloride, reference compound]
phototoxicity classification by PIF and MPE: positive results | IC50 (UVA 365 nm irradiation, read-out: IC50 UV (+Irr)): 1.26 µg/mL | IC50 (without UV irradiation, read-out: IC50 UV (−Irr)): 37.5 µg/mL
